The text below walks through data of patent US20250171432A1, “COMPOUNDS AND METHODS OF USE” (Tango Therapeutics, Inc., priority 2022, published 2025).

Format in all cases: cell-based
Experiment [1] concerns SDMA (PRMT5 activity) in HAP1 MTAP-deleted cell line. In words: SDMA in-cell western assay, HAP1 MTAP-deleted. The settings on record: for IC50 / IC90: Homo sapiens, SDMA in-cell western, HAP1 MTAP-deleted cells, 24 hours compound incubation; for Hap1 MTAP intact/deleted ratio: ratio of SDMA IC50 in HAP1 MTAP-intact to HAP1 MTAP-deleted cell line. How it is done: (§1) The SAM-cooperative PRMT5 inhibitor, GSK3326595, was sourced from SelleckChem and maintained as a 10 mM DMSO stock. All test compounds are maintained as 10 mM DMSO stocks
(§2) On Day 0, MTAP-intact or MTAP-deleted cells are seeded in a 384-well plate, and incubated in a humidified, 5% CO2 tissue culture incubator for 16-24 hours. On Day 1, the test compounds are dispensed to wells at defined concentrations using a Tecan D300e digital dispenser (n=4), and the volume of DMSO is normalized to highest class volume. Each plate includes wells dosed with defined concentrations of GSK33226595 as a plate control. The compounds are incubated with cells for 24 hours in a humidified, 5% CO2 tissue culture incubator.
(§3) On Day 2, the compound-treated cells are fixed with a final concentration of 4% formaldehyde. The cells are then washed/permeabilized with 1×PBS+0.1% Triton X-100, and then blocked with 5% goat serum/1×TBS.
(§4) The cells are washed with 1×PBS+0.1% Triton X-100, and then washed again with ddH20. The plates are then imaged using a NIR fluorescent imager (LiCor Odyssey).
(§5) For data analysis, the SDMA signal is normalized to the DRAQ5 signal. Assay background is determined by the signal from wells treated with 1 μM GSK3326595, and subtracted from every well. The data are plotted as % of the DMSO control wells for the MTAP-intact and the MTAP-deleted cell lines independently, and fitted to the 4-parameter logistic (4-PL) Hill equation with maximal effect constrained to 0. The fit was performed using GraphPad Prism or the default IC50 fitting procedure in Dotmatics Studies 5.4 as part of a customized data analysis protocol.

The subject of experiment [2] is SDMA (PRMT5 activity) in HAP1 MTAP-intact cell line. In words: SDMA in-cell western assay, HAP1 MTAP-intact. The settings on record: Homo sapiens, HAP1, 24 h, SDMA in-cell western, HAP1 MTAP-intact cells, 24 hours compound incubation. How it is done:
as §1, §2, §3, §4, §5

The test system of experiment [3] is HAP1 MTAP-deleted cell line. In words: Viability assay (CellTiter-Glo), HAP1 MTAP-deleted. The settings on record: Homo sapiens, 168 h, HAP1 MTAP-deleted cells, 7 days. The procedure:
All test compounds are maintained as 10 mM DMSO stocks.
On Day 0, MTAP-intact and MTAP-deleted cells are seeded in a 96-well plate, and incubated in a humidified, 5 or 10% CO2 tissue culture incubator for 16-24 hours. On Day 1, the test compounds are dispensed to wells at defined concentrations using a Tecan D300e digital dispenser (n=3), and the volume of DMSO is normalized to highest class volume (0.2%). The compound-treated plates are incubated for 7 days in a humidified, 5 or 10% CO2 tissue culture incubator.
On Day 7, the plates are removed from the tissue culture incubator and allowed to equilibrate to room temperature. Then either a ½% volume CellTiter-Glo Luminescent Cell Viability Assay reagent (Promega G7572) is added to each well, or the media is removed from every well and a 1:3 dilution of CellTiter-Glo 2.0 Cell Viability Assay reagent (Promega G9241) in 1×PBS is added. Ten minutes after addition, the luminescent signal is detected by an Envision plate reader. The data are plotted as % of the DMSO control wells for the MTAP-intact and the MTAP-deleted cell lines independently, and fitted to the 4-parameter logistic (4-PL) Hill equation with maximal effect constrained to 0. The fit was performed using GraphPad Prism or the default IC50 fitting procedure in Dotmatics Studies 5.4 as part of a customized data analysis protocol.
For orientation: Cellular ATP, detected with luciferase, serves as a proxy for viable cell number.

Usually IC50 stands for the midpoint of a concentration-inhibition curve. In general, IC90 refers to the point of the concentration-response curve where the effect stands at 90%.

Consider `CCc1cc(NC(=O)C(=O)N2C[C@@H](C)CC[C@@H]2c2ccc3sc([C@@H]4CN(C)C[C@H]4C)nc3c2)cnc1N` (mixture of isomers) [Compound 10, N-(6-amino-5-ethylpyridin-3-yl)-2-((2R,5S)-2-(2-(rac-(3S,4S)-1,4-dimethylpyrrolidin-3-yl)benzo[d]thiazol-5-yl)-5-methylpiperidin-1-yl)-2-oxoacetamide], for which, in experiment [1], the IC50 was less than 5 nM, the 90% effect concentration (IC90) is less than 75 nM and the “Hap1 MTAP intact/deleted ratio” value is reported as “A (“A” indicates an IC50 ratio greater than or equal to 30 fold)”. This compound displayed an IC50 in experiment [2] greater than 50 nM. Besides, in experiment [3], the IC50 is less than 100 nM.
For `Cc1cc2[nH]c(C(=O)N3C[C@@H](C)CC[C@@H]3c3ccc4sc(C5CCN(C)CC5)nc4c3)cc2nc1N` [Compound 110, (5-amino-6-methyl-1H-pyrrolo[3,2-b]pyridin-2-yl)((2R,5S)-5-methyl-2-(2-(1-methylpiperidin-4-yl)benzo[d]thiazol-5-yl)piperidin-1-yl)methanone], in experiment [1], the IC50 was less than 5 nM, the IC90 was less than 75 nM and the “Hap1 MTAP intact/deleted ratio” value is recorded as “A (“A” indicates an IC50 ratio greater than or equal to 30 fold)”. The same compound returned an IC50 in experiment [2] greater than 50 nM. This compound showed an IC50 in experiment [3] of less than 100 nM.
`CCc1cc(NC(=O)C(=O)N2C[C@@H](C)CC[C@@H]2c2ccc3cc(C#N)c(C4CCN(C)CC4)nc3c2)cnc1N` [Compound 63, N-(6-amino-5-ethylpyridin-3-yl)-2-((2R,5S)-2-(3-cyano-2-(1-methylpiperidin-4-yl)quinolin-7-yl)-5-methylpiperidin-1-yl)-2-oxoacetamide]: in experiment [1], the IC50 was less than 5 nM, the IC90 was less than 75 nM and the “Hap1 MTAP intact/deleted ratio” value is “A (“A” indicates an IC50 ratio greater than or equal to 30 fold)”. The compound also yielded an IC50 in experiment [2] greater than 50 nM. Further, in experiment [3], the IC50 was less than 100 nM.
The like results for `CCc1cc(NC(=O)C(=O)N2C[C@@H](C)CC[C@@H]2c2ccc3sc(C4=CCN(C)CC4)nc3c2)cnc1N` [Compound 28, N-(6-amino-5-ethylpyridin-3-yl)-2-((2R,5S)-5-methyl-2-(2-(1-methyl-1,2,3,6-tetrahydropyridin-4-yl)benzo[d]thiazol-5-yl)piperidin-1-yl)-2-oxoacetamide] were, in that order, less than 5 nM, less than 75 nM, “A (“A” indicates an IC50 ratio greater than or equal to 30 fold)”, 5 to 50 nM and less than 100 nM.
Consider `CCc1cc(NC(=O)C(=O)N2C[C@@H](C)CC[C@@H]2c2ccc3sc([C@H]4CCN(C)C[C@@H]4OC)nc3c2)cnc1N` (single isomer, unassigned) [Compound 90], for which, in experiment [1], the half-inhibitory concentration (IC50) was less than 5 nM, the IC90 was less than 75 nM and the “Hap1 MTAP intact/deleted ratio” value is reported as “A (“A” indicates an IC50 ratio greater than or equal to 30 fold)”. For the same compound, in experiment [2], the IC50 was greater than 50 nM. In experiment [3], this compound gave an IC50 of less than 100 nM.
Turning to `COc1ncc(NC(=O)C(=O)N2C[C@@H](C)CC[C@@H]2c2ccc3sc(C4=CCN(C)CC4)nc3c2)cc1C(N)=O` [Compound 83, 2-methoxy-5-(2-((2R,5S)-5-methyl-2-(2-(1-methyl-1,2,3,6-tetrahydropyridin-4-yl)benzo[d]thiazol-5-yl)piperidin-1-yl)-2-oxoacetamido)nicotinamide], in experiment [1], the concentration for half-maximal inhibition (IC50) is less than 5 nM, the concentration for an effect of 90% (IC90) was less than 75 nM and the “Hap1 MTAP intact/deleted ratio” value is “A (“A” indicates an IC50 ratio greater than or equal to 30 fold)”. The same compound returned an IC50 in experiment [2] greater than 50 nM. The IC50 in experiment [3] is less than 100 nM.
As to `CCc1cc(NC(=O)C(=O)N2C[C@@H](C)CC[C@@H]2c2ccc3sc(C4CC(C5CN(C)C5)C4)nc3c2)cnc1N` (stereo partly drawn) [Compound 100, N-(6-amino-5-ethylpyridin-3-yl)-2-((2R,5S)-5-methyl-2-(2-(3-(1-methylazetidin-3-yl)cyclobutyl)benzo[d]thiazol-5-yl)piperidin-1-yl)-2-oxoacetamide], in experiment [1], the IC50 is less than 5 nM, the IC90 was less than 75 nM and the “Hap1 MTAP intact/deleted ratio” value was “B (“B” indicates an IC50 ratio greater than or equal to 15 fold but lower than 30 fold)”. Moreover, the IC50 in experiment [2] lay within 5 to 50 nM. In addition, the IC50 in experiment [3] was less than 100 nM.
On to `COc1ncc(NC(=O)C(=O)N2C[C@@H](C)CC[C@@H]2c2ccc3cn(CCN(C)C)nc3c2)cc1C(N)=O` [Compound 7, 2-methoxy-5-[[2-oxo-2-[(2R,5S)-2-[2-[2-(dimethylamino)ethyl]indazol-6-yl]-5-methyl-1-piperidyl]acetyl]amino]pyridine-3-carboxamide], for which, in experiment [1], the IC50 was 5 to 50 nM, the IC90 was less than 75 nM and the “Hap1 MTAP intact/deleted ratio” value is recorded as “A (“A” indicates an IC50 ratio greater than or equal to 30 fold)”. This compound also yielded a concentration for half-maximal inhibition (IC50) in experiment [2] greater than 50 nM. The compound also gave an IC50 in experiment [3] of less than 100 nM.
In the case of `CCc1cc(NC(=O)C(=O)N2C[C@@H](C)CC[C@@H]2c2cccc(OC[C@H](C)N(C)C)c2)cnc1N` [Compound 66, N-(6-amino-5-ethylpyridin-3-yl)-2-((2R,5S)-2-(3-((S)-2-(dimethylamino)propoxy)phenyl)-5-methylpiperidin-1-yl)-2-oxoacetamide], the results for the IC50 in experiment [1], in experiment [2] and in experiment [3] were less than 5 nM, greater than 50 nM and less than 100 nM, respectively. The IC90 in experiment [1] is less than 75 nM. The “Hap1 MTAP intact/deleted ratio” value in experiment [1] is “A (“A” indicates an IC50 ratio greater than or equal to 30 fold)”.
As for `CCc1cc(NC(=O)C(=O)N2C[C@@H](C)CC[C@@H]2c2ccc3c(c2)OC2(CCN(C)CC2)C3)cnc1N` [Compound 31, N-(6-amino-5-ethylpyridin-3-yl)-2-((2R,5S)-5-methyl-2-(1′-methyl-3H-spiro[benzofuran-2,4′-piperidin]-6-yl)piperidin-1-yl)-2-oxoacetamide], the 50% inhibitory concentration (IC50) in experiment [1] was 5 to 50 nM; in experiment [2], greater than 50 nM; in experiment [3], 100 to 1000 nM. For the same compound, in experiment [1], the IC90 was greater than 125 nM. Moreover, the “Hap1 MTAP intact/deleted ratio” value in experiment [1] is reported as “A (“A” indicates an IC50 ratio greater than or equal to 30 fold)”.
For `CCc1cc(NC(=O)C(=O)N2C[C@@H](C)CC[C@@H]2c2ccc3sc([C@@H](C)CN4CCCC4)nc3c2)cnc1N` [Compound 47] the same measures were less than 5 nM, greater than 50 nM, less than 100 nM, less than 75 nM and “A (“A” indicates an IC50 ratio greater than or equal to 30 fold)”.
`CCc1cc(NC(=O)C(=O)N2C[C@@H](C)CC[C@@H]2c2ccc3sc(CC4CCN(C)CC4)nc3c2)cnc1N` [Compound 41, N-(6-amino-5-ethylpyridin-3-yl)-2-((2R,5S)-5-methyl-2-(2-((1-methylpiperidin-4-yl)methyl)benzo[d]thiazol-5-yl)piperidin-1-yl)-2-oxoacetamide]: in experiment [1], the IC50 is less than 5 nM, the IC90 was less than 75 nM and the “Hap1 MTAP intact/deleted ratio” value is reported as “B (“B” indicates an IC50 ratio greater than or equal to 15 fold but lower than 30 fold)”. In experiment [2], this compound registered an IC50 of 5 to 50 nM. The compound also returned an IC50 in experiment [3] of less than 100 nM.
As for `COc1ncc(NC(=O)C(=O)N2C[C@@H](C)CC[C@@H]2c2ccc3sc([C@H]4C[C@@H](N(C)C)C4)nc3c2)cc1C(N)=O` (single isomer, unassigned) [Compound 24], the IC50 in experiment [1] is less than 5 nM; in experiment [2] it was greater than 50 nM; in experiment [3], less than 100 nM. Also, the concentration for an effect of 90% (IC90) in experiment [1] is less than 75 nM. In experiment [1], the “Hap1 MTAP intact/deleted ratio” value was “A (“A” indicates an IC50 ratio greater than or equal to 30 fold)”.
